Experimental data as given in ChEMBL document CHEMBL4219043, “Beyond the Rule of 5: Lessons Learned from AbbVie's Drugs and Compound Collection” (J Med Chem, 2018).
≈ marks a conversion by molar mass, not a printed value.

Experiments:
Hepatitis C virus [1] = assay: Antiviral activity against HCV genotype 1b Con1 infected in human HuH7 replicon cells after 3 days in presence of 40% human plasma by luciferase reporter gene assay; type: functional, organism-based, Hepacivirus hominis; conditions: isolate Con1, Huh-7, 72 h
[2] = Plasma clearance in iv dosed rat by LC-MS/MS analysis; type: ADME, organism-based
Canis familiaris [3] = assay: Fraction of drug absorbed into portal vein in dog at 3 mg/kg, po by LC-MS/MS analysis; type: ADME, organism-based, Canis lupus familiaris; conditions: in vivo
[4] = Half life in dog at 3 mg/kg, po by LC-MS/MS analysis; type: ADME, organism-based, Canis lupus familiaris; conditions: in vivo
Hepatitis C virus [5] = assay: Antiviral activity against HCV genotype 1b Con1 harboring NS3 D168V mutant infected in human HuH7 replicon cells after 3 days by luciferase reporter gene assay; type: functional, organism-based, Hepacivirus hominis; conditions: isolate Con1, Huh-7, 72 h
Hepatitis C virus [6] = assay: Antiviral activity against HCV genotype 1b Con1 harboring NS3 R155K mutant infected in human HuH7 replicon cells after 3 days by luciferase reporter gene assay; type: functional, organism-based, Hepacivirus hominis; conditions: isolate Con1, Huh-7, 72 h
Hepatitis C virus [7] = assay: Antiviral activity against HCV genotype 1a H77 harboring NS3 D168V mutant infected in human HuH7 replicon cells after 3 days by luciferase reporter gene assay; type: functional, organism-based, Hepacivirus hominis; conditions: genotype 1a H77, Huh-7, 72 h
Hepatitis C virus [8] = assay: Antiviral activity against HCV genotype 1a H77 harboring NS3 R155K mutant infected in human HuH7 replicon cells after 3 days by luciferase reporter gene assay; type: functional, organism-based, Hepacivirus hominis; conditions: genotype 1a H77, Huh-7, 72 h
[9] = Oral bioavailability in rat by LC-MS/MS analysis; type: ADME, organism-based; conditions: in vivo
Rattus norvegicus = assay: Dose normalized AUC in po dosed rat after 24 hrs by LC-MS/MS analysis; type: ADME, organism-based; conditions: in vivo
Hepatitis C virus [10] = assay: Resistance index, ratio of EC50 for HCV genotype 1b Con1 harboring NS3 D168V mutant infected in human HuH7 replicon cells to EC50 for HCV genotype 1b Con1 harboring wild type NS3 infected in human HuH7 replicon cells; type: functional, Hepacivirus hominis, isolate Con1
[11] = Half life in iv dosed rat by LC-MS/MS analysis; type: ADME, organism-based; conditions: in vivo
[12] = Plasma clearance in dog at 1 mg/kg, iv by LC-MS/MS analysis; type: ADME, organism-based, Canis lupus familiaris
Canis familiaris [13] = assay: Dose normalized AUC in dog at 3 mg/kg, po after 24 hrs by LC-MS/MS analysis; type: ADME, organism-based, Canis lupus familiaris; conditions: in vivo
Hepatitis C virus [14] = assay: Resistance index, ratio of EC50 for HCV genotype 1a H77 harboring NS3 D168V mutant infected in human HuH7 replicon cells to EC50 for HCV genotype 1a H77 harboring wild type NS3 infected in human HuH7 replicon cells; type: functional, Hepacivirus hominis
[15] = Apparent permeability of the compound by PAMPA; type: ADME
Hepatitis C virus [16] = assay: Resistance index, ratio of EC50 for HCV genotype 1b Con1 harboring NS3 R155K mutant infected in human HuH7 replicon cells to EC50 for HCV genotype 1b Con1 harboring wild type NS3 infected in human HuH7 replicon cells; type: functional, Hepacivirus hominis, isolate Con1
[17] = Solubility in pH 7.2 buffer; type: physicochemical
Hepatitis C virus [18] = assay: Antiviral activity against HCV genotype 3a infected in human HuH7 replicon cells after 3 days in absence of human plasma by luciferase reporter gene assay; type: functional, organism-based, Hepacivirus hominis; conditions: Huh-7, 72 h
[19] = Half life in dog at 1 mg/kg, iv by LC-MS/MS analysis; type: ADME, organism-based, Canis lupus familiaris; conditions: in vivo
Hepatitis C virus [20] = assay: Ratio of EC50 in presence of 40% human plasma to EC50 in absence of human plasma for HCV genotype 1a H77 infected in human HuH7 replicon cells; type: functional, Hepacivirus hominis
Hepatitis C virus [21] = assay: Antiviral activity against HCV genotype 1a H77 infected in human HuH7 replicon cells after 3 days in absence of human plasma by luciferase reporter gene assay; type: functional, organism-based, Hepacivirus hominis; conditions: genotype 1a H77, Huh-7, 72 h
Hepatitis C virus [22] = assay: Antiviral activity against HCV genotype 1a H77 infected in human HuH7 replicon cells after 3 days in presence of 40% human plasma by luciferase reporter gene assay; type: functional, organism-based, Hepacivirus hominis; conditions: genotype 1a H77, Huh-7, 72 h
Hepatitis C virus [23] = assay: Antiviral activity against HCV genotype 1b Con1 infected in human HuH7 replicon cells after 3 days in absence of human plasma by luciferase reporter gene assay; type: functional, organism-based, Hepacivirus hominis; conditions: isolate Con1, Huh-7, 72 h
[24] = Half life in po dosed rat by LC-MS/MS analysis; type: ADME, organism-based; conditions: in vivo
Hepatitis C virus [25] = assay: Resistance index, ratio of EC50 for HCV genotype 1a H77 harboring NS3 R155K mutant infected in human HuH7 replicon cells to EC50 for HCV genotype 1a H77 harboring wild type NS3 infected in human HuH7 replicon cells; type: functional, Hepacivirus hominis
[26] = Oral bioavailability in dog at 3 mg/kg by LC-MS/MS analysis; type: ADME, organism-based, Canis lupus familiaris; conditions: in vivo
RS4-11 = assay: Antiproliferative activity against human RS4:11 cells in presence of 10% human serum; type: functional, cell-based
MOLT-4 = assay: Antiproliferative activity against human MOLT4 cells in presence of 10% human serum; type: functional, cell-based

| SMILES | EC50 (Hepatitis C virus [1]) [nM] | clearance [2] [L/h/kg] | FaFg (Canis familiaris [3]) | EC50 (Hepatitis C virus [5]) [nM] | EC50 (Hepatitis C virus [6]) [nM] | EC50 (Hepatitis C virus [7]) [nM] | bioavailability [9] [%] | AUC/dose (Rattus norvegicus) [µg·h/mL] | Ratio EC50 (Hepatitis C virus [10]) | half-life [11] [h] | clearance [12] [L/h/kg] | AUC/dose (Canis familiaris [13]) [µg·h/mL] | Ratio EC50 (Hepatitis C virus [14]) | Papp [15] [nm/s] | Ratio EC50 (Hepatitis C virus [16]) | Solubility [17] [µM] | half-life [19] [h] | Ratio EC50 (Hepatitis C virus [20]) | EC50 (Hepatitis C virus [21]) [nM] | EC50 (Hepatitis C virus [22]) [nM] | further results |
| --- | --- | --- | --- | --- | --- | --- | --- | --- | --- | --- | --- | --- | --- | --- | --- | --- | --- | --- | --- | --- | --- |
| Cc1cc(C(=O)N[C@H]2CCCCC/C=C\[C@@H]3C[C@@]3(C(=O)NS(=O)(=O)C3(C)CC3)NC(=O)[C@@H]3C[C@@H](Oc4nc5cc(F)ccc5nc4C(F)(F)F)CN3C2=O)no1 | 11 | 1.6 | 0.9 | 1.3 | 0.4 | 14 | 27 | 0.19 | 4 | 4.1 | 0.02 | 46.8 | 127 | 121 | 1 | 20.6 (≈ 16.6 µg/mL) | 2.9 | 6 - 35 | 0.7 | 9 | half-life [4]: 2.9 h; EC50 (Hepatitis C virus [8]): 0.3 nM; EC50 (Hepatitis C virus [18]): 124 nM; EC50 (Hepatitis C virus [23]): 0.5 nM; half-life [24]: 4.7 h; Ratio EC50 (Hepatitis C virus [25]): 3 |
| CC(=O)N(C)[C@@H](CC(C)(C)C)C(=O)N[C@H]1CCCCC/C=C\[C@@H]2C[C@@]2(C(=O)NS(=O)(=O)C2(C)CC2)NC(=O)[C@@H]2C[C@@H](Oc3nc4cc(F)ccc4c4ccccc34)CN2C1=O | 12 | 3.1 | 0.8 | 3 | 8 | 0.4 | 27 | 0.09 | 11 | 1.7 | 0.07 | 11.6 | 2 | 2.8 | 33 | 2.2 (≈ 1.89 µg/mL) | 2.2 | 6 - 35 | 0.5 | 7 | half-life [4]: 2.1 h; EC50 (Hepatitis C virus [8]): 0.6 nM; bioavailability [26]: 76%; EC50 (Hepatitis C virus [18]): 4 to 8 nM; EC50 (Hepatitis C virus [23]): 2 nM; half-life [24]: 1.5 h; Ratio EC50 (Hepatitis C virus [25]): 0.8 |
| Cc1cc(C(=O)N[C@H]2CCCCC/C=C\[C@@H]3C[C@@]3(C(=O)NS(=O)(=O)C3(C)CC3)NC(=O)[C@@H]3C[C@@H](Oc4nc5ccccc5c5ccc(F)cc45)CN3C2=O)no1 | 8 | 2.5 | 1.4 | 0.9 | 0.4 | 8 | 40 | 0.16 | 9 | 3.2 | 0.02 | 85 | 168 | 1.9 | 4 | 1.9 (≈ 1.5 µg/mL) | 2.3 | 6 - 35 | 0.7 | 6 | half-life [4]: 2 h; bioavailability [26]: 140%; EC50 (Hepatitis C virus [18]): 4 to 7 nM; EC50 (Hepatitis C virus [23]): 0.5 nM; half-life [24]: 3.5 h; Ratio EC50 (Hepatitis C virus [25]): 18 |
| Cc1cc(C(=O)N[C@H]2CCCCC/C=C\[C@@H]3C[C@@]3(C(=O)NS(=O)(=O)C3CC3)NC(=O)[C@@H]3C[C@@H](Oc4nc5ccccc5nc4C)CN3C2=O)no1 | 9 | 4.7 | 0.2 | 5 | 2 | 94 | 3.9 | 0.008 | 2 | 2.4 | 0.47 | 0.3 | 177 | 35 | 2 | > 500 | 1.4 | 6 - 35 | 1.4 | 30 | EC50 (Hepatitis C virus [8]): 3 nM; bioavailability [26]: 13%; EC50 (Hepatitis C virus [23]): 0.4 nM; Ratio EC50 (Hepatitis C virus [25]): 6 |
| CN(C)CC[C@H](CSc1ccccc1)Nc1ccc(S(=O)(=O)NC(=O)c2ccc(N3CCN(Cc4ccccc4-c4ccc(Cl)cc4)CC3)cc2)cc1[N+](=O)[O-] [ABT 737] | – | – | – | – | – | – | – | – | – | – | – | – | – | – | – | – | – | – | – | – | EC50 (RS4-11): 24 nM; EC50 (MOLT-4): 622 nM |
